According to PMC4457528, “Identification of Novel Small Molecule Inhibitors of Oncogenic RET Kinase” (PLoS ONE, 2015):
Like-named read-outs stand apart in the source and are kept apart here.

Experiments:
Assay in all cases: KinomeScan kinase panel, single concentration 10 µM
Type in all cases: binding
KinomeScan kinase panel [1] = target: T1, KinomeScan kinase panel (Homo sapiens, UniProt Q99759); details: MAP3K3, 10 µM; read-out: score (%)
T1 construct: purchased DiscoveRx (KinomeScan)
T1 sequence (Q99759 1-626): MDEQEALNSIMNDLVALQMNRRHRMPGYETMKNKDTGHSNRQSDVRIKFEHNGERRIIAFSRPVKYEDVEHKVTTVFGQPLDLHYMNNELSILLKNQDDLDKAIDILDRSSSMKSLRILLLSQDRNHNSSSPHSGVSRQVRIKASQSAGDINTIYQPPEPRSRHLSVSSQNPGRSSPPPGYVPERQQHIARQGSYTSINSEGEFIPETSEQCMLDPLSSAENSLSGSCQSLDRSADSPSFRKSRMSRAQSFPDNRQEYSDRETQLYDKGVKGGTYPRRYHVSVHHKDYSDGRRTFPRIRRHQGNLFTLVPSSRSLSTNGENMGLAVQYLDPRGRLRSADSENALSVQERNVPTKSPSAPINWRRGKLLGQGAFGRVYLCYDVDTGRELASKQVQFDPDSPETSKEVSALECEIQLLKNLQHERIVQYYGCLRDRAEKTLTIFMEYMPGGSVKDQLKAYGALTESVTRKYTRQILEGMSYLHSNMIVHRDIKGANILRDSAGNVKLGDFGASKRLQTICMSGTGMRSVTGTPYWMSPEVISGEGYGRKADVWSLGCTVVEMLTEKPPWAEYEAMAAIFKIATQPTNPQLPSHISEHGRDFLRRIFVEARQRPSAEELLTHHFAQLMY

KinomeScan kinase panel [2] = target: T2, KinomeScan kinase panel (Homo sapiens, UniProt Q02156); details: 10 µM, read-out: score (%)
T2 construct: purchased DiscoveRx (KinomeScan)
T2 sequence (Q02156 1-737): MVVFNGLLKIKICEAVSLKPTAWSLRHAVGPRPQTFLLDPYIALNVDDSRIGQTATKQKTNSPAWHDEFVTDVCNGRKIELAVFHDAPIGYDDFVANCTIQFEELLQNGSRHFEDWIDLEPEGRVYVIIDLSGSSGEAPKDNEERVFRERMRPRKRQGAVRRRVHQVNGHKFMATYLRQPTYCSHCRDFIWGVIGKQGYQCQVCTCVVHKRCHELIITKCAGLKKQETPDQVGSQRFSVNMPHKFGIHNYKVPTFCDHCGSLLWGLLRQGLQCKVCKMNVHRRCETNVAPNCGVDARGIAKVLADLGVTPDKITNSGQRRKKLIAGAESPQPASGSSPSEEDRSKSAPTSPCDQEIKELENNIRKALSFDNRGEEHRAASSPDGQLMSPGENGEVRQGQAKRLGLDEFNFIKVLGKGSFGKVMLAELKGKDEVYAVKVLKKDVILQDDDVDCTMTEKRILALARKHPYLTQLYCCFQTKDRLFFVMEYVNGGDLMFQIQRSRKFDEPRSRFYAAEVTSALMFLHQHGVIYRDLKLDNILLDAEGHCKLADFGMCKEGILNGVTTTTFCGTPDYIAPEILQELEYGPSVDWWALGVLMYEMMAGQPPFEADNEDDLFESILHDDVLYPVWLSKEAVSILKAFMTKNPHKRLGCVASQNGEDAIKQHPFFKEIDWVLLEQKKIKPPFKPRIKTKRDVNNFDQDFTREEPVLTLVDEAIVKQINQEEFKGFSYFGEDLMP

KinomeScan kinase panel [3] = target: T3, KinomeScan kinase panel (Homo sapiens, UniProt P54646); details: AMPK-alpha2, 10 µM; read-out: score (%)
T3 construct: purchased DiscoveRx (KinomeScan)

KinomeScan kinase panel [4] = target: T4, KinomeScan kinase panel (Homo sapiens, UniProt Q9Y616); details: IRAK3, 10 µM; read-out: score (%)
T4 construct: purchased DiscoveRx (KinomeScan)
T4 sequence (Q9Y616 1-596): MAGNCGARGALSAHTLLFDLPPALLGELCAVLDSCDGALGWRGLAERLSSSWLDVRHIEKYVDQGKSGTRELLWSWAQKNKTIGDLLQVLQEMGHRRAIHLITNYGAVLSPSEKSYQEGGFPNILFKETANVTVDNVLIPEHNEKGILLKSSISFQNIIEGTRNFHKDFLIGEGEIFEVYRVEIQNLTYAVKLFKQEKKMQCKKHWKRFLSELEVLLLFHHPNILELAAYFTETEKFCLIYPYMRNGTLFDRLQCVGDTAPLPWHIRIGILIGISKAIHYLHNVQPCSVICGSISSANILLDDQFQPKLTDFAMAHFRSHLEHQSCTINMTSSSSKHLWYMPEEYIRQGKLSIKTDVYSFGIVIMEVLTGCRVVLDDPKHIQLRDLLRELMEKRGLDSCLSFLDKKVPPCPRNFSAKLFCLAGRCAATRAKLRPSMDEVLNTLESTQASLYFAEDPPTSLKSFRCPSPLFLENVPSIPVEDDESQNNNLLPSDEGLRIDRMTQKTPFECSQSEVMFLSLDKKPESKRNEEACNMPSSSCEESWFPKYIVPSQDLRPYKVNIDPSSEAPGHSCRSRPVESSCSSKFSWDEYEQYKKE

T3 sequence (P54646 whole entry): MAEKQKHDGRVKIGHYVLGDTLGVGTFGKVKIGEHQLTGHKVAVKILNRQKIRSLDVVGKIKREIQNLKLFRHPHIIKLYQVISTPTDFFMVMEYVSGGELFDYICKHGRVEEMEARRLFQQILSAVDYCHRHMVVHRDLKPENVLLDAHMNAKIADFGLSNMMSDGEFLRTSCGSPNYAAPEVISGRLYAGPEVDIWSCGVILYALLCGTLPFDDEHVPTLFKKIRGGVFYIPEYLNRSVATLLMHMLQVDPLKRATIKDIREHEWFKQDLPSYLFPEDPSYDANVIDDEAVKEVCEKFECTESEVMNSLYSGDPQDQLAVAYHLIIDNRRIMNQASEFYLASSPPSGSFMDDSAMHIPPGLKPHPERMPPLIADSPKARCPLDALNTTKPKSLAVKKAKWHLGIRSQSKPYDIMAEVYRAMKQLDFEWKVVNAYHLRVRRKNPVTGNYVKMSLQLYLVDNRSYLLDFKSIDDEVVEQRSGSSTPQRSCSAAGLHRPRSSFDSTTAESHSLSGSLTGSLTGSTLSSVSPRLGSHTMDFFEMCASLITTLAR

| Compound | remaining binding at 10 µM (KinomeScan kinase panel [1]) [%] | remaining binding at 10 µM (KinomeScan kinase panel [2]; PRKCE) [%] | remaining binding at 10 µM (KinomeScan kinase panel [3]) [%] | remaining binding at 10 µM (KinomeScan kinase panel [4]) [%] | remaining binding at 10 µM (KinomeScan kinase panel [2]; kinase PRKCE) [%] |
| --- | --- | --- | --- | --- | --- |
| CCN1CCN(Cc2ccc(NC(=O)c3ccc(C)c(NC(=O)c4cncc(-c5cccs5)c4)c3)cc2C(F)(F)F)CC1 [ALW-II-41-27] | 0.25 | 5 | > 30 | > 30 | – |
| CCN1CCN(Cc2ccc(NC(=O)c3ccc(C)c(/C=C/c4cnc5[nH]ccc5c4Cl)c3)cc2C(F)(F)F)CC1 [HG-6-63-01, (E)-3-(2-(4-chloro-1H-pyrrolo[2,3-b]pyridin-5-yl)vinyl)-N-(4-((4-ethylpiperazin-1-yl)methyl)-3-(trifluoromethyl)phenyl)-4-methylbenzamide] | 4 | > 30 | > 30 | > 30 | – |
| CCN1CCN(Cc2ccc(NC(=O)c3ccc(C)c(C#Cc4cccnc4)c3)cc2C(F)(F)F)CC1 [XMD15-44] | 1.4 | – | 18 | > 30 | 54 |
